US20070010485A1 (priority 2005, published 2007)
Structures can show the parent of a compound that is named as a salt.

Key:
[1] = tested on: P-gp expressing CD33(+) leukemia cells; conditions: cited from earlier work
[2] = use of CAPTISOL

Structure (SMILES) | reversal of resistance to Mylotarg [1] | increase in water solubility with CAPTISOL [2] [fold]
O=C(C(c1ccccc1)c1ccccc1)N1CCN(CC(O)COc2cccc3ncccc23)CC1.O=C(O)/C=C/C(=O)O (centres unmarked) [MS-209] | reverse the resistance to Mylotarg | 
OC(COc1cccc2ncccc12)CN1CCN([C@@H]2c3ccccc3[C@@H]3[C@H](c4ccccc42)C3(F)F)CC1 (some centres unmarked) [zosuquidar trihydrochloride] |  | > 5
